Biological target: HTR4 (Homo sapiens, UniProt Q13639)
Conditions: agonist; pH 7.0, 30 °C

HTR4, sequence (Q13639 whole entry): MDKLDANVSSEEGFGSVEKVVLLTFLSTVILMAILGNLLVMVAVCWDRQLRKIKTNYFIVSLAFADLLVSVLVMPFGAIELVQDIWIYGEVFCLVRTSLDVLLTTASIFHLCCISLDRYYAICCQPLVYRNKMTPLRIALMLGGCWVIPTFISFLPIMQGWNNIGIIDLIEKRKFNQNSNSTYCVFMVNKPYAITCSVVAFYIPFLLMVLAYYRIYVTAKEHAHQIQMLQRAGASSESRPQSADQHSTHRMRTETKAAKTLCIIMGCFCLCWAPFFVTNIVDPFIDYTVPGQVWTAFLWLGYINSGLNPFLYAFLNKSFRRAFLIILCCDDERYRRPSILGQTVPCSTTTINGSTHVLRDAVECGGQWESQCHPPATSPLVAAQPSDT

NCCc1c[nH]c2ccccc12 [tryptamine]
EC50: tryptamine agonism of HTR4 and ADRA2B

— article doi:10.1101/2020.01.16.909325v1 (biorxiv, 2020)
